From US10815247B2, “Functionalized NANOLUC inhibitors” (PROMEGA CORPORATION, priority 2016, dated 2020)
Entries after “also recorded” stand apart in the source; their conditions may differ. Read-outs that look alike come from different tables or passages of the source.

Experiments:
NanoLuc [1] = biological target: T1, NanoLuc (Oplophorus gracilirostris, UniProt Q9GV45, A31E/A60N/A81I/F95D/I117V/K70R/L54V/L99Q/M102K/N193R/P142E/Q151K/Q38R/Q45L/V71I/Y165I); settings: inhibitor diluted to 3 uM, NanoLuc 0.4 ng/ml, 100 uM furimazine, read at two minute intervals
T1 sequence (Q9GV45 28-196 with tags or gaps with the stated changes limits assumed): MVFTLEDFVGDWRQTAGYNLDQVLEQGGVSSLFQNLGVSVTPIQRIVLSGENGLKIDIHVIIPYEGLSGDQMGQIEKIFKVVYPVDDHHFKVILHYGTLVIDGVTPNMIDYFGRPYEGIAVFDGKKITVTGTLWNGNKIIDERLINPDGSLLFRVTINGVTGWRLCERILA
Procedure: Inhibitors were diluted to 3 uM into OptiMEM+0.1% FBS. NanoLuc was diluted to 0.4 ng/ml into NanoGlo® buffer+100 uM furimazine. 50 ul of each inhibitor was added to 50 ul of the NanoLuc/furimazine/NanoGlo® solution. Samples were immediately placed in a GloMax Multi+ set to read in kinetic mode at two minute intervals.
Inhibitors were diluted to 3 uM into OptiMEM+0.1% FBS. NanoLuc was diluted to 0.4 ng/ml into NanoGlo® buffer+100 uM furimazine. 50 ul of each inhibitor was added to 50 ul of the NanoLuc/furimazine/NanoGlo® solution. Samples were immediately placed in a GloMax® Multi+ set to read in kinetic mode at two minute intervals.

NanoLuc [2] = biological target: T1, NanoLuc; assay: Inhibitor IC50 determination; type: biochemical
Procedure: The following example provides the IC50 values for the compounds disclosed herein. NANOLUC® enzyme was diluted to 0.4 ng/ml in CO2 independent media+10% FBS to make the detection reagent. A 3× dilution series of each inhibitor was then made in the detection reagent. A “no inhibitor” control was also made for each sample. 50 ul of each inhibitor dilution was mixed with 50 ul of NanoGlo® buffer containing 20 μM furimazine (final furimazine concentration is 10 μM, which is at Km.), and luminescence was measured. Each sample was normalized to the “no inhibitor” control. The IC50 values were then determined using GraphPad Prism (log[inhibitor] vs. normalized response).

NanoLuc [3] = biological target: T1, NanoLuc; assay: Suicide inhibition: displacement of inhibitor by furimazine upon dilution (FIG. 7); settings: 10 μM Nluc + 10 μM inhibitor 30 minutes at RT, diluted to 10 pM, furimazine 10 uM
Procedure: Following dilution, 50 ul of the dilution was combined with 50 ul of NanoGlo® assay buffer.
Following dilution, 50 ul of the dilution was combined with 50 ul of NanoGlo® assay buffer. Final furimazine concentration was 10 uM.

[4] = 0.4 ng/ml NANOLUC in CO2 independent media+10% FBS, final furimazine 10 μM, no pre-incubation noted, read-out: IC50

Molecule | IC50 (NanoLuc [2]) | IC50 (NanoLuc [2]; [4]) | also measured
CCN(C(=O)Cn1c(C(=O)N[C@H]2CC[C@H](C(=O)NCCCCCCCC(=O)NCCOCCOCCC(=O)ON3C(=O)CCC3=O)CC2)cc2sccc21)c1cccc(C)c1 [JRW-0544, 2,5-dioxopyrrolidin-1-yl 1-(trans-4-(4-(2-(ethyl(m-tolyl)amino)-2-oxoethyl)-4H-thieno[3,2-b]pyrrole-5-carboxamido)cyclohexyl)-1,10-dioxo-14,17-dioxa-2,11-diazaicosan-20-oate] | 13 nM |  | Nluc inhibition over time (kinetic light output) (NanoLuc [1]): steady state binding
CCN(C(=O)Cn1c(C(=O)N[C@H]2CC[C@H](C(=O)OC)CC2)cc2sccc21)c1cccc(CCCBr)c1 [JRW-0548, methyl trans-4-(4-(2-((3-(3-bromopropyl)phenyl)(ethyl)amino)-2-oxoethyl)-4H-thieno[3,2-b]pyrrole-5-carboxamido)cyclohexane-1-carboxylate] | 99 nM |  | Nluc inhibition over time (kinetic light output) (NanoLuc [1]): steady state inhibition
CCc1cccc(N(CC)C(=O)Cn2c(C(=O)N[C@H]3CC[C@H](C(=O)NCCCCCC(=O)OC)CC3)cc3ccccc32)c1 [JRW-0598, methyl 6-(trans-4-(1-(2-(ethyl(3-ethylphenyl)amino)-2-oxoethyl)-1H-indole-2-carboxamido)cyclohexane-1-carboxamido)hexanoate] | 0.4 nM |  | displacement of inhibitor by furimazine upon dilution (NanoLuc [3]): slower
CCc1cccc(N(CC)C(=O)Cn2c(C(=O)N[C@H]3CC[C@H](C(=O)NCCCCCCCC(=O)ON4C(=O)CCC4=O)CC3)cc3ccccc32)c1 [JRW-0600, 2,5-dioxopyrrolidin-1-yl 8-(trans-4-(1-(2-(ethyl(3-ethylphenyl)amino)-2-oxoethyl)-1H-indole-2-carboxamido)cyclohexane-1-carboxamido)octanoate] |  |  | displacement of inhibitor by furimazine upon dilution (NanoLuc [3]): not displaced; reversibility of Nluc inhibition (NanoLuc [3]): irreversible inhibition; also recorded: irreversibly inhibit
CCc1cccc(N(CC)C(=O)Cn2c(C(=O)N[C@H]3CC[C@H](C(=O)NCCCCCC(=O)ON4C(=O)CCC4=O)CC3)cc3ccccc32)c1 [JRW-0604, 2,5-dioxopyrrolidin-1-yl 6-(trans-4-(1-(2-(ethyl(3-ethylphenyl)amino)-2-oxoethyl)-1H-indole-2-carboxamido)cyclohexane-1-carboxamido)hexanoate] | 2.7 nM |  | displacement of inhibitor by furimazine upon dilution (NanoLuc [3]): slower; reversibility of Nluc inhibition (NanoLuc [3]): did not show irreversible inhibition
CCc1cccc(N(CC)C(=O)Cn2c(C(=O)N[C@H]3CC[C@H](C(=O)NCCCCCC(=O)Oc4ccccc4)CC3)cc3ccccc32)c1 [JRW-0606, phenyl 6-(trans-4-(1-(2-(ethyl(3-ethylphenyl)amino)-2-oxoethyl)-1H-indole-2-carboxamido)cyclohexane-1-carboxamido)hexanoate] | 4.1 nM |  | displacement of inhibitor by furimazine upon dilution (NanoLuc [3]): slower
CCc1cccc(N(CC)C(=O)Cn2c(C(=O)N[C@H]3CC[C@H](C(=O)NCCCCCCNC(=O)c4ccc5c(c4)C(=O)OC54c5ccc(OC(C)=O)cc5Oc5cc(OC(C)=O)ccc54)CC3)cc3ccccc32)c1 [JRW-0650, 5-((6-(trans-4-(1-(2-(ethyl(3-ethylphenyl)amino)-2-oxoethyl)-1H-indole-2-carboxamido)cyclohexane-1-carboxamido)hexyl)carbamoyl)-3-oxo-3H-spiro[isobenzofuran-1,9′-xanthene]-3′,6′-diyl diacetate] |  |  | displacement of inhibitor by furimazine upon dilution (NanoLuc [3]): slower
CCc1cccc(N(CC)C(=O)Cn2c(C(=O)N[C@H]3CC[C@H](C(=O)NCCCCCCCCNC(=O)CCc4ccc5n4[B-](F)(F)[N+]4=C(C)C=C(C)C4=C5)CC3)cc3ccccc32)c1 [JRW-0888, N-(trans-4-((8-(3-(5,5-difluoro-7,9-dimethyl-5H-5λ4,6λ4-dipyrrolo[1,2-c:2′,1′-f][1,3,2]diazaborinin-3-yl)propanamido)octyl)carbamoyl)cyclohexyl)-1-(2-(ethyl(3-ethylphenyl)amino)-2-oxoethyl)-1H-indole-2-carboxamide] | 26 nM |  | 
CCN(C(=O)Cn1c(C(=O)NC2CCC(C(=O)NCCCCCCCCNC(=O)CCC3=[N+]4C(=Cc5c(C)cc(C)n5[B-]4(F)F)C=C3)CC2)cc2sccc21)c1cccc(C)c1 (stereo not drawn) [JRW-0889, N-(trans-4-((8-(3-(5,5-difluoro-7,9-dimethyl-5H-5λ4,6λ4-dipyrrolo[1,2-c:2′,1′-f][1,3,2]diazaborinin-3-yl)propanamido)octyl)carbamoyl)cyclohexyl)-4-(2-(ethyl(m-tolyl)amino)-2-oxoethyl)-4H-thieno[3,2-b]pyrrole-5-carboxamide] |  | 280 nM | 
CCc1cccc(N(CC)C(=O)Cn2c(C(=O)N[C@H]3CC[C@H](C(=O)NCCCCCCNC(=O)CCOCCOCCNC(=O)c4ccc5c(c4)C4(OC5=O)c5ccc(N(C)C)cc5Oc5cc(N(C)C)ccc54)CC3)cc3ccccc32)c1 [JRW-0915, N-(trans-4-((1-(3′,6′-bis(dimethylamino)-3-oxo-3H-spiro[isobenzofuran-1,9′-xanthen]-6-yl)-1,11-dioxo-5,8-dioxa-2,12-diazaoctadecan-18-yl)carbamoyl)cyclohexyl)-1-(2-(ethyl(3-ethylphenyl)amino)-2-oxoethyl)-1H-indole-2-carboxamide] | 5.2 nM |  | 
CCc1cccc(N(CC)C(=O)Cn2c(C(=O)N[C@H]3CC[C@H](C(=O)NCCCCCCCCNC(=O)CCOCCOCCNC(=O)c4ccc5c(c4)C4(OC5=O)c5ccc(N(C)C)cc5Oc5cc(N(C)C)ccc54)CC3)cc3ccccc32)c1 [JRW-0920, N-(trans-4-((1-(3′,6′-bis(dimethylamino)-3-oxo-3H-spiro[isobenzofuran-1,9′-xanthen]-6-yl)-1,11-dioxo-5,8-dioxa-2,12-diazaicosan-20-yl)carbamoyl)cyclohexyl)-1-(2-(ethyl(3-ethylphenyl)amino)-2-oxoethyl)-1H-indole-2-carboxamide] | 1.7 nM |  | 
CCc1cccc(N(CC)C(=O)Cn2c(C(=O)N[C@H]3CC[C@H](C(=O)NCCCCCCCCNC(=O)CCC(=O)NCCC4=C5C=CC=[N+]5[B-](F)(F)n5c(C)cc(C)c54)CC3)cc3ccccc32)c1 [JRW-1081, N1-(2-(5,5-difluoro-1,3-dimethyl-5H-5λ4,6λ4-dipyrrolo[1,2-c:2′,1′-f][1,3,2]diazaborinin-10-yl)ethyl)-N4-(8-(trans-4-(1-(2-(ethyl(3-ethylphenyl)amino)-2-oxoethyl)-1H-indole-2-carboxamido)cyclohexane-1-carboxamido)octyl)succinamide] | 6 nM |  | 
N1-(2-(5,5-difluoro-1,3-dimethyl-5H-5λ4,6λ4-dipyrrolo[1,2-c:2′,1′-f][1,3,2]diazaborinin-10-yl)ethyl)-N4-(1-(trans-4-(1-(2-(ethyl(3-ethylphenyl)amino)-2-oxoethyl)-1H-indole-2-carboxamido)cyclohexyl)-1,10-dioxo-13,16-dioxa-2,9-diazaoctadecan-18-yl)succinamide [JRW-1082] |  | 3.3 nM | 
N1-(2-(5,5-difluoro-1,3-dimethyl-5H-5λ4,6λ4-dipyrrolo[1,2-c:2′,1′-f][1,3,2]diazaborinin-10-yl)ethyl)-N4-(1-(trans-4-(1-(2-(ethyl(3-ethylphenyl)amino)-2-oxoethyl)-1H-indole-2-carboxamido)cyclohexyl)-1,12-dioxo-15,18-dioxa-2,11-diazaicosan-20-yl)succinamide [JRW-1083] |  | 1.8 nM | 
N-(trans-4-((1-(3′,6′-dihydroxy-3-oxo-3H-spiro[isobenzofuran-1,9′-xanthen]-5,6-yl)-1,11-dioxo-5,8-dioxa-2,12-diazaicosan-20-yl)carbamoyl)cyclohexyl)-1-(2-(ethyl(3-ethylphenyl)amino)-2-oxoethyl)-1H-indole-2-carboxamide [JRW-0921] |  | 1.1 nM | 
N-(trans-4-((6-(3′,6′-diamino-3-oxo-3H-spiro[isobenzofuran-1,9′-xanthene]-5,6-carboxamido)hexyl)carbamoyl)cyclohexyl)-1-(2-(ethyl(3-ethylphenyl)amino)-2-oxoethyl)-1H-indole-2-carboxamide [JRW-0859] |  | 2 nM | 
N-(trans-4-((8-(3′,6′-diamino-3-oxo-3H-spiro[isobenzofuran-1,9′-xanthene]-5,6-carboxamido)octyl)carbamoyl)cyclohexyl)-1-(2-(ethyl(3-ethylphenyl)amino)-2-oxoethyl)-1H-indole-2-carboxamide [JRW-0886] |  | 3.7 nM | 
N-(trans-4-((8-(4′,5′-dichloro-3′,6′-dihydroxy-2′,7′-dimethoxy-3-oxo-3H-spiro[isobenzofuran-1,9′-xanthene]-5,6-carboxamido)octyl)carbamoyl)cyclohexyl)-1-(2-(ethyl(3-ethylphenyl)amino)-2-oxoethyl)-1H-indole-2-carboxamide [JRW-0964] |  | 12 nM | 
N-(trans-4-((8-(6-((Z)-2-((E)-3-(1,1-dimethyl-1,4,5,6-tetrahydro-3λ4-pyrrolo[3,2,1-ij]quinolin-2-yl)allylidene)-1-methyl-1,2,5,6-tetrahydro-4H-pyrrolo[3,2,1-ij]quinolin-1-yl)hexanamido)octyl)carbamoyl)cyclohexyl)-1-(2-(ethyl(3-ethylphenyl)amino)-2-oxoethyl)-1H-indole-2-carboxamide [JRW-0958] |  | 16 nM | 
